Laboratory results reported in US6583265B1, “Cyclosporins” (C-Chem AG, priority 1998, dated 2003).
Converted amounts (≈) assume the structure as drawn. Numbered stars: 1 amine (or outer) side, 2 acyl side, 3 side chain; on linkers, the order of the positions; unused ones are H or OH. Square brackets hold non-standard residues; d marks the D form. Peptide text beside a SMILES is read from it. MeBmt = C/C=C/C[C@@H](C)[C@@H](O)[C@H](NC)C(=O)O; NMeLeu(4-OH) = CN[C@@H](CC(C)(C)O)C(=O)O; X2 = CN(C(Sc1ccccn1)C(=O)[*:2])[*:1]; NMeL = CN[C@@H](CC(C)C)C(=O)O; NMeV = CN[C@H](C(=O)O)C(C)C; Abu = CC[C@H](N)C(=O)O

Assays:
HIV = assay type: cell-based
Excerpt: The inhibitory effect of test compounds on the HIV-induced cytopathic effect on the MT4 T cell line as described by R. Pauwels in J. Virol. Methods, 1988, Vol. 20, pp 309-321 was used.

cyclophilin = cyclophilin (Homo sapiens, UniProt P62937); test: Test for cyclophilin binding (Fliri); settings: ratio to cyclosporin A
Excerpt: To measure the affinity and inhibition of test compounds for cyclophilin, the test described by H. Fliri in “Antibiotics and Antiviral compounds”, 1993, Verlag Chemie, K.Krohn, H. A. Kirst, and H. Maag, eds., p 229-240 was used.

[1] = Antiinflammatory activity, adjuvent arthritis test (Pearson); assay type: in vivo; settings: oral, solutions in olive oil and tween 80
Description: The antiinflammatory activity of test compounds was determined by the adjuvent arthritis test described by Pearson, “Arthr. Rheum”, 1959, Vol. 2., 440. Test compounds were administered orally as solutions in olive oil and tween 80.

cyclophilin, sequence (P62937 whole entry): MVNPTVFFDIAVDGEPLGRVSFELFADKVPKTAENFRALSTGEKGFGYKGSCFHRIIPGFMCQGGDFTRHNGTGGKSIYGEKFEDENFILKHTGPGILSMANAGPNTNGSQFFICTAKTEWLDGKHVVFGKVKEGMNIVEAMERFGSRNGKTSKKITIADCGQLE

IC50 (HIV)	Relative IC50, i.e. IC50 (cyclosporin A)/IC50 (test compound) (cyclophilin)	Structure (SMILES)	ED50, dose effective in reducing the joint swelling by 50% [1]
1 µg/mL (≈ 0.771 µM)	0.2	C/C=C/C[C@@H](C)[C@@H](O)[C@H]1C(=O)N[C@@H](CC)C(=O)N(C)C(Sc2ccccn2)C(=O)N(C)[C@@H](C(C)C)C(=O)N[C@@H](C(C)C)C(=O)N(C)[C@@H](CC(C)C)C(=O)N[C@@H](C)C(=O)N[C@H](C)C(=O)N(C)[C@@H](CC(C)C)C(=O)N(C)[C@@H](CC(C)C)C(=O)N(C)[C@@H](C(C)C)C(=O)N1C (stereo partly drawn) [Example 4, 3-(Pyridyl-2-thio)-4-methylvaline-cyclosporin] (HELM PEPTIDE1{[C/C=C/C[C@@H](C)[C@@H](O)[C@@H](C(=O)[*:2])N(C)[*:1]].[Abu].[CN(C(Sc1ccccn1)C(=O)[*:2])[*:1]].[meV].V.[meL].A.[dA].[meL].[meL].[meV]}$PEPTIDE1,PEPTIDE1,1:R1-11:R2$$$V2.0)	25 mg/kg
1 µg/mL (≈ 0.754 µM)	0.2	C/C=C/C[C@@H](C)[C@@H](O)[C@H]1C(=O)N[C@@H](CCC)C(=O)N(C)C(Sc2ccccn2)C(=O)N(C)[C@@H](CC(C)C)C(=O)N[C@@H](C(C)C)C(=O)N(C)[C@@H](CC(C)C)C(=O)N[C@@H](C)C(=O)N[C@H](C)C(=O)N(C)[C@@H](CC(C)C)C(=O)N(C)[C@@H](CC(C)C)C(=O)N(C)[C@@H](C(C)C)C(=O)N1C (stereo partly drawn) [Example 5, 3-(Pyridyl-2-thio)-2-norvaline-cyclosporin] (HELM PEPTIDE1{[C/C=C/C[C@@H](C)[C@@H](O)[C@@H](C(=O)[*:2])N(C)[*:1]].[Nva].[CN(C(Sc1ccccn1)C(=O)[*:2])[*:1]].[meL].V.[meL].A.[dA].[meL].[meL].[meV]}$PEPTIDE1,PEPTIDE1,1:R1-11:R2$$$V2.0)	25 mg/kg

Continued, compound first:

Structure (SMILES)	IC50 (HIV)	Relative IC50, i.e. IC50 (cyclosporin A)/IC50 (test compound) (cyclophilin)	ED50, dose effective in reducing the joint swelling by 50% [1]
C/C=C/C[C@@H](C)[C@@H](O)[C@H]1C(=O)N[C@@H](CC)C(=O)N(C)C(Sc2ccccn2)C(=O)N(C)[C@@H](CC(C)C)C(=O)N[C@@H](C(C)C)C(=O)N(C)[C@@H](CC(C)C)C(=O)N[C@@H](C)C(=O)N[C@H](C)C(=O)N(C)[C@@H](CC(C)C)C(=O)N(C)[C@@H](CC(C)C)C(=O)N(C)[C@@H](C(C)C)C(=O)N1C (stereo partly drawn) [Example 1, 3-(Pyridyl-2-thio)-cyclosporin] (HELM PEPTIDE1{[C/C=C/C[C@@H](C)[C@@H](O)[C@@H](C(=O)[*:2])N(C)[*:1]].[Abu].[CN(C(Sc1ccccn1)C(=O)[*:2])[*:1]].[meL].V.[meL].A.[dA].[meL].[meL].[meV]}$PEPTIDE1,PEPTIDE1,1:R1-11:R2$$$V2.0)	0.45 µg/mL (≈ 0.343 µM)	0.2	25 mg/kg
C/C=C/C[C@@H](C)[C@@H](O)[C@H]1C(=O)N[C@@H](CC)C(=O)N(C)C(Sc2ccncc2)C(=O)N(C)[C@@H](CC(C)C)C(=O)N[C@@H](C(C)C)C(=O)N(C)[C@@H](CC(C)C)C(=O)N[C@@H](C)C(=O)N[C@H](C)C(=O)N(C)[C@@H](CC(C)C)C(=O)N(C)[C@@H](CC(C)C)C(=O)N(C)[C@@H](C(C)C)C(=O)N1C (stereo partly drawn) [Example 2, 3-(Pyridyl-4-thio)-cyclosporin A] (HELM PEPTIDE1{[C/C=C/C[C@@H](C)[C@@H](O)[C@@H](C(=O)[*:2])N(C)[*:1]].[Abu].[CN(C(Sc1ccncc1)C(=O)[*:2])[*:1]].[meL].V.[meL].A.[dA].[meL].[meL].[meV]}$PEPTIDE1,PEPTIDE1,1:R1-11:R2$$$V2.0)	1 µg/mL (≈ 0.762 µM)	0.2	25 mg/kg
C/C=C/C[C@@H](C)[C@@H](O)[C@H]1C(=O)N[C@@H](CC)C(=O)N(C)C(Sc2ccccn2)C(=O)N(C)[C@@H](CC(C)(C)O)C(=O)N[C@@H](C(C)C)C(=O)N(C)[C@@H](CC(C)C)C(=O)N[C@@H](C)C(=O)N[C@H](C)C(=O)N(C)[C@@H](CC(C)C)C(=O)N(C)[C@@H](CC(C)C)C(=O)N(C)[C@@H](C(C)C)C(=O)N1C (stereo partly drawn) [Example 3, 3-(Pyridyl-2-thio)-4-(γ-hydroxy-methylleucine)-cyclosporin] (cyclo([MeBmt][Abu][X2][NMeLeu(4-OH)]V[NMeL]A[dA][NMeL][NMeL][NMeV]))	1 µg/mL (≈ 0.753 µM)	0.2	25 mg/kg
